Consider three compounds from patent publication US20240132518A1, “CEPHALOSPORIN ANTIBACTERIAL COMPOUND AND PREPARATION METHOD THEREFOR” (priority 2021, published 2024).

A short description of data set [1]: Pharmacokinetic study in ICR mice. To be noted: 100 mg/kg subcutaneous injection, plasma. Format: in vivo. Here is the method:
The formulation for administration was prepared on ice. A proper amount of the test compound was precisely weighed out, and a 90% volume of normal saline was slowly added. The mixture was ultrasonically stirred in an ice-water bath until no large pieces existed. After the mixture was well mixed, a 1 M NaOH solution was added in small portions using a pipette.
• Species and strain: ICR mice • Animal grade: SPF • Animal source: Medicilon: 999M-018
Administration by subcutaneous injection: 3 mice/sex/time point; blood samples were collected at 9 time points: 0.083 h, 0.25 h, 0.5 h, 1 h, 2 h, 4 h, 6 h, 8 h and 24 h after administration. The collected blood samples were placed in EDTA-K2 anticoagulation blood collection tubes. The collected whole blood was placed on ice and centrifuged at 6800 g at 2-8° C. for 6 min to separate plasma within 1 h. After the centrifugation, the plasma was transferred to a centrifuge tube to which a plasma stabilizer had been added in advance (plasma:concentrated phosphoric acid=100:0.2; for example, 1 μL of 10% concentrated phosphoric acid was added to 50 μL of plasma). All the animals were subjected to careful clinical observation before administration and at each of the blood collection time points after administration, and the adverse reaction symptoms in the animals were recorded.

For data set [2], the system named is Carbapenem-resistant Acinetobacter baumannii (CRAB). The data set is described as follows: Antibacterial MIC assay (ID-CAMHB), carbapenem-resistant Acinetobacter baumannii. The format is cell-based. As for the experimental part: (§1) 1. The test compounds were dissolved in sterile normal saline, vortexed for uniformly mixing, and diluted in a 2-fold dilution with the sterile normal saline (11 concentration points in total). The test concentration range was 32-0.031 μg/mL, and two duplicate wells were set for each concentration. Additional wells without drug dosing were set as growth controls.
(§2) 2. 4 μL of the diluent was added to 196 μL of the bacterial suspension in a 96-well plate (the bacterial count in the bacterial suspension was 2-8×10^5 colony forming units/mL).
(§3) The minimum inhibitory concentration (MIC) assay was performed with reference to the Clinical and Laboratory Standards Institute (CLSI) guidelines.

Data set [3] relates to Carbapenem-resistant Enterobacteriaceae (CRE, Klebsiella pneumoniae). In words: Antibacterial MIC assay (ID-CAMHB), carbapenem-resistant Enterobacteriaceae. The format is cell-based. As for the experimental part:
as §1, §2, §3

The nature of data set [4]: Pharmacokinetic study in cynomolgus monkeys. Format: in vivo. As to conditions: cynomolgus monkey, 10 mg/kg single intravenous infusion, plasma, individual animals. Here is the method:
An appropriate amount of a test compound was weighed precisely and added to a container, and 0.9% sodium chloride injection and 0.2 M NaOH solution were added thereto in an ice bath until the test compound was completely dissolved, so that a sample solution at a concentration of 2 mg/mL was obtained followed by storage at 2-8° C. for later use.
• Species and strain: cynomolgus monkey • Animal grade: general grade • Animal source: Guangxi Xiongsen Primate Experimental Animal Breeding Development Co., Ltd. • Number of the using of laboratory animal: SYXK (Su) 2019-0012
6 cynomolgus monkeys (half male and half female) were selected and randomly divided into 3 groups with 1 animal/sex in each group. The cynomolgus monkeys were administered with the test sample at a dose of 10 mg/kg by the single intravenous infusion. Blood samples were collected from each group of animals at the following time points: before administration, and 5 min, 15 min, 0.5 h, 1 h, 2 h, 4 h, 6 h, and 8 h after administration. In the test, the concentration of each test compound in the plasma of the cynomolgus monkey was detected by the LC-MS/MS method, and the lower limits of quantification of the analysis methods for the plasma samples were all 1 μg/mL. The plasma concentration data were analyzed by the non-compartmental analysis (NCA) of the analysis software for pharmacokinetic data, WinNonlin, pharmacokinetic parameters were calculated, and pharmacokinetic characteristics of the test compounds in cynomolgus monkeys after administration were investigated, with the results shown in the following table.

Data set [5] concerns Control strain (Escherichia coli) ATCC 25922. In words: Antibacterial MIC assay (ID-CAMHB), control strain Escherichia coli. The format is cell-based. Here is the method: as §1, §2, §3
For data set [6], the system named is Control strain (Pseudomonas aeruginosa) ATCC 27853. In words: Antibacterial MIC assay (ID-CAMHB), control strain Pseudomonas aeruginosa. The format is cell-based. To be noted: ATCC27853. As for the experimental part: as §1, §2, §3
For data set [7], the system named is Carbapenem-resistant Pseudomonas aeruginosa (CRPA). In words: Antibacterial MIC assay (ID-CAMHB), carbapenem-resistant Pseudomonas aeruginosa. Format: cell-based. Here is the method: as §1, §2, §3
The mark [8] stands for this setting: strain FDA-CDC AR-BANK#0063, AMR gene OXA-23, OXA-65, OXA-24, sul2, read-out: MIC.
[9] abbreviates: strain FDA-CDC AR-BANK#0453, AMR gene KPC-3, OmpK35, oqxA, oqxB, SHV-11, TEM-1B.
The mark [10] stands for this setting: strain FDA-CDC AR-BANK#0052, AMR gene OXA-58, OXA-100, sul2.
Where [11] appears, read: strain FDA-CDC AR-BANK#0070, AMR gene OXA-58, OXA-100, sul2.
Where [12] appears, read: strain FDA-CDC AR-BANK#0439, AMR gene aac(6′)-Il, aadA1b, BCR1, IMP-18, OXA-50.
[13] abbreviates: strain FDA-CDC AR-BANK#0457, AMR gene aadA6, VIM-2.
Setting [14] is: strain FDA-CDC AR-BANK#0361, AMR gene TEM-1, SHV-12, KPC-2.
[15] abbreviates: strain FDA-CDC AR-BANK#0362, AMR gene TEM-1, SHV-11, KPC-2.
The mark [16] stands for this setting: strain FDA-CDC AR-BANK#0363, AMR gene TEM-1, SHV-12, KPC-2.
The mark [17] stands for this setting: strain FDA-CDC AR-BANK#0438, AMR gene aph(3′)-Ia, dfrA12, KPC-3, OmpK35, oqxA, oqxB, SHV-11.
[18] abbreviates: both sexes, cynomolgus, iv, 10 mg/kg.

≈ marks a conversion by molar mass, not a printed value. Where two headings read alike, the source gives them in different places.

Regarding `CC(C)(O/N=C(\C(=O)N[C@@H]1C(=O)N2C(C(=O)[O-])=C(C[N+]3(CCNC(=O)c4ccc(O)c(O)c4Cl)CCCC3)CS[C@H]12)c1csc(N)n1)C(=O)O` [Cefiderocol, reference compound], in data set [1], the AUMC0-inf stood at 150.7 h · h · ug · mL^−1, the AUMC0-t came to 150.3 h · h · ug · mL^−1, the Kel came to 1.45 h⁻¹ and the MRTPO is 34.6 min. Besides, in data set [1] (both sexes, mouse, sc), the AUC(0-inf) worked out at 261000 ng·h/mL, the AUC(0-t) is 261000 ng·h/mL, the Cmax came to 363000 ng/mL and the Tmax was found to be 15 min. In data set [1] (both sexes, mouse, sc), this compound showed a half-life of 28.6 min. For the same compound, the MIC in data set [2] (setting [8]) came to 4 µg/mL (≈ 5.32 µM). In data set [3] (setting [9]), this compound showed an MIC of 1 µg/mL (≈ 1.33 µM). In addition, the Vd in data set [4] (10 mg/kg) turned out to be 0.37963 L/kg.
With `CC(C)(O/N=C(\C(=O)N[C@@H]1C(=O)N2C(C(=O)[O-])=C(C[N+]3(CCN(CCCNC(=O)c4ccc(O)c(O)c4Cl)C(=O)c4ccc(O)c(O)c4Cl)CCCC3)CS[C@H]12)c1csc(N)n1)C(=O)O` [Compound 1], the MIC in data set [5] (ATCC25922, ID-CAMHB, control strain ATCC 25922, read-out: MIC) came out at 0.0625 µg/mL (≈ 0.0638 µM); in data set [6], 0.125 µg/mL (≈ 0.128 µM); in data set [2] (strain FDA-CDC AR-BANK#0036, AMR gene strB, OXA-65, OXA-24, strA, sul2, read-out: MIC), 0.25 µg/mL (≈ 0.255 µM); in data set [2] (setting [10]), 0.125 µg/mL (≈ 0.128 µM); in data set [2] (setting [8]) it was 32 µg/mL (≈ 32.7 µM); in data set [2] (setting [11]), 0.125 µg/mL (≈ 0.128 µM). Further, the MIC was determined as 1 µg/mL (≈ 1.02 µM) in data set [2] (strain FDA-CDC AR-BANK#0101, AMR gene strB, OXA-65, OXA-24, strA, sul2, read-out: MIC); 0.125 µg/mL (≈ 0.128 µM) in data set [7] (setting [12]); 2 µg/mL (≈ 2.04 µM) in data set [7] (strain FDA-CDC AR-BANK#0441, AMR gene KPC-2, read-out: MIC); 2 µg/mL (≈ 2.04 µM) in data set [7] (strain FDA-CDC AR-BANK#0444, AMR gene aac(6′)-Il, dfrB5, OXA-4, tet(G), VIM-2, read-out: MIC); 0.125 µg/mL (≈ 0.128 µM) in data set [7] (setting [13]); 0.5 µg/mL (≈ 0.51 µM) in data set [3] (setting [14]). Further, the MIC in data set [3] (setting [15]) worked out at 0.25 µg/mL (≈ 0.255 µM); in data set [3] (setting [16]), 0.125 µg/mL (≈ 0.128 µM); in data set [3] (setting [17]) it was 0.5 µg/mL (≈ 0.51 µM); in data set [3] (setting [9]), 1 µg/mL (≈ 1.02 µM). Further, the AUC(0-inf) in data set [4] (setting [18]) came to 32900 ng·h/mL. In addition, the AUC(0-t) in data set [4] (setting [18]) came to 29300 ng·h/mL. In data set [4] (setting [18]), the clearance is 5.06 mL/min/kg. In data set [4] (setting [18]), this compound showed a half-life of 37.2 min. In addition, the Cmax in data set [4] (both sexes, cynomolgus, iv, 10 mg/kg, read-out: Cmax) came out at 35500 ng/mL; in data set [4] (10 mg/kg), 30640 ng/mL. The MRT is 38.4 min in data set [4] (both sexes, cynomolgus, iv, 10 mg/kg, read-out: MRT) and 37.2 min in data set [4] (10 mg/kg). The Vd in data set [4] (both sexes, cynomolgus, iv, 10 mg/kg, read-out: Vd) was found to be 0.27 L/kg; in data set [4] (10 mg/kg) it was 0.31334 L/kg. In addition, in data set [4] (both sexes), the Tmax was 4.8 min. Moreover, the AUC last in data set [4] (10 mg/kg) turned out to be 23440 ng·h/mL. In addition, in data set [4] (10 mg/kg), the AUCinf was 25640 ng·h/mL. For the same compound, in data set [4] (10 mg/kg), the CL stood at 6.5002 mL/min/kg. For the same compound, the t1/2 in data set [4] (10 mg/kg) is 33.6 min.
On to `C[C@H](CN(CCCNC(=O)c1ccc(O)c(O)c1Cl)C(=O)c1ccc(O)c(O)c1Cl)[N+]1(CC2=C(C(=O)[O-])N3C(=O)[C@@H](NC(=O)/C(=N\OC(C)(C)C(=O)O)c4csc(N)n4)[C@H]3SC2)CCCC1` [Compound 2], for which the MIC in data set [5] (ATCC25922) is 0.125 µg/mL (≈ 0.126 µM); in data set [6] it was 0.0625 µg/mL (≈ 0.0629 µM); in data set [2] (strain FDA-CDC AR-BANK#0036, AMR gene strB, OXA-65, OXA-24, strA, sul2) it was 0.5 µg/mL (≈ 0.503 µM); in data set [2] (setting [10]), 0.125 µg/mL (≈ 0.126 µM); in data set [2] (strain FDA-CDC AR-BANK#0063, AMR gene OXA-23, OXA-65, OXA-24, sul2), 4 µg/mL (≈ 4.02 µM); in data set [2] (setting [11]), 0.25 µg/mL (≈ 0.252 µM). In addition, the MIC in data set [2] (strain FDA-CDC AR-BANK#0101, AMR gene strB, OXA-65, OXA-24, strA, sul2) worked out at 1 µg/mL (≈ 1.01 µM); in data set [7] (setting [12]), 0.5 µg/mL (≈ 0.503 µM); in data set [7] (strain FDA-CDC AR-BANK#0441, AMR gene KPC-2), 8 µg/mL (≈ 8.05 µM); in data set [7] (strain FDA-CDC AR-BANK#0444, AMR gene aac(6′)-Il, dfrB5, OXA-4, tet(G), VIM-2), 4 µg/mL (≈ 4.02 µM); in data set [7] (setting [13]), 0.25 µg/mL (≈ 0.252 µM); in data set [3] (setting [14]) it was 1 µg/mL (≈ 1.01 µM). For the same compound, the MIC is 0.25 µg/mL (≈ 0.252 µM) in data set [3] (setting [15]), 0.5 µg/mL (≈ 0.503 µM) in data set [3] (setting [16]), 1 µg/mL (≈ 1.01 µM) in data set [3] (setting [17]) and 1 µg/mL (≈ 1.01 µM) in data set [3] (setting [9]).

As usually defined, the AUC(0-inf) is the area under the concentration-time curve extrapolated to infinity. A high value points to more exposure. A word on the AUC(0-t): it is the area under the concentration-time curve up to a stated or last time point. High values mean more exposure, low ones less exposure. The term Cmax denotes the highest concentration seen after dosing. For orientation: Tmax means the time from dosing to the highest level. A word on the half-life: it is the time in which the quantity being followed falls by half. A high value points to slow loss. In general, MIC refers to the smallest concentration in the dilution series that meets the test's criterion for growth inhibition. For orientation: Vd means the apparent volume that relates the amount in the body to the concentration in plasma or blood. The clearance is a measure of how efficiently the substance is removed, as volume per time. The low end stands for a low capacity for elimination, the high end for a high capacity for elimination. In general, MRT refers to a mean duration of stay, worked out from the concentration-time curve.
